Source: patent publication US20150368655A1, “TRANSFORMED EUGLENA AND PROCESS FOR PRODUCING SAME” (OSAKA PREFECTURE UNIVERSITY PUBLIC CORPORATION, priority 2012, published 2015)
In brackets after ≈: the same amount, converted by molar mass.

Test system: Euglena wild strain
Assay: Growth inhibition / drug sensitivity of the Euglena wild strain in KH medium
Format: cell-based, Euglena gracilis
Experimental: Euglena gracilis Klebs Z strain (hereafter, “Euglena wild strain”), which has chloroplasts, was used.
Koren-Hutner medium (KH medium) was used as a heterotrophic medium (Table 1). 150 ml of the KH medium adjusted to a pH of 6.8 was placed in a 500 ml Sakaguchi flask and sterilized by autoclaving at 121° C. for 15 minutes. 1 ml of Euglena that reached the stationary phase by culturing for about 4 to 7 days (10 to 15×10^6 cells/ml) was inoculated into the medium, followed by culture with shaking at 27° C. under continuous light conditions for 24 hours. A plate medium was prepared by adding 1.0%(w/v) of agar powder.
The minimum inhibitory concentration of zeocin for the Euglena wild strain in a medium at a pH of 6.8 was examined. […] The growth inhibition was observed even when the number of cells at the start of culture was relatively large (2.0×10^6 cells/ml in a liquid medium, 2.0×10^6 cells/plate in a plate medium).
The influence of cefotaxime, which is used to remove Agrobacterium, on the growth of Euglena in transformation by the Agrobacterium method was examined. The results reveal that cefotaxime had no influence on the growth of the Euglena wild strain to at least 500 μg/ml (FIG. 8). Thus, a selective medium containing cefotaxime was used.

CO/N=C(\C(=O)N[C@@H]1C(=O)N2C(C(=O)O)=C(COC(C)=O)CS[C@H]12)c1csc(N)n1 [cefotaxime]
Influence on the growth of the Euglena wild strain (to at least 500 μg/ml (FIG. 8)): no influence

Cc1c(N)nc([C@H](CC(N)=O)NC[C@H](N)C(N)=O)nc1C(=O)N[C@H](C(=O)N[C@H](C)[C@@H](O)[C@H](C)C(=O)N[C@H](C(=O)NCCC1=N[C@@H](c2nc(C(=O)NCCCCN=C(N)N)cs2)CS1)[C@@H](C)O)[C@@H](O[C@@H]1O[C@@H](CO)[C@@H](O)[C@H](O)[C@@H]1O[C@H]1O[C@H](CO)[C@@H](O)[C@H](OC(N)=O)[C@@H]1O)c1cnc[nH]1 [zeocin]
Minimum inhibitory concentration (growth completely inhibited) (liquid medium, pH of 6.8): 50 µg/mL (≈ 35 µM)
Growth of the Euglena wild strain (medium containing 100 μg/ml of zeocin, liquid medium (FIG. 5) or plate medium (FIG. 6)): almost completely inhibited
Minimum inhibitory concentration (growth nearly inhibited) (plate medium, pH of 6.8): 25 µg/mL (≈ 17.5 µM)

CN[C@@H]1[C@@H](O)[C@@H](O[C@@H]2[C@@H](O)[C@H](O[C@H]3O[C@H]([C@@H](C)O)[C@@H](O)[C@H](O)[C@H]3N)[C@@H](N)C[C@H]2N)OC[C@]1(C)O [G418]
Growth of the Euglena wild strain (as the concentrations increased (FIGS. 9 and 10)): inhibited the growth
